Assay results taken from US20230372357A1, “STABLE PHARMACEUTICAL COMPOSITION” (SANTEN PHARMACEUTICAL CO., LTD., priority 2020, published 2023).

How the values were obtained:
[1] = intracameral injection; cited from earlier work
[2] = Finding at development stage: compound dissolved as aqueous composition; type: physicochemical

**Q.** Which intraocular pressure [1] does the source give for `CCN(CC)CC1CCCCN1CC(=O)N1c2ccccc2C(=O)Nc2cccnc21` (stereo not drawn) [AFDX0116, 11-[2-[2-[(diethylamino)methyl]-1-piperidinyl]acetyl]-5,11-dihydro-6H-pyrido[2,3-b][1,4]benzodiazepin-6-one] here?
**A.** The intraocular pressure was “decreased”.

**Q.** With `CCN(CC)C[C@H]1CCCCN1CC(=O)N1c2ccccc2C(=O)Nc2cccnc21` [AFDX0250, (+)-11-[2-[2-[(diethylamino)methyl]-1-piperidinyl]acetyl]-5,11-dihydro-6H-pyrido[2,3-b][1,4]benzodiazepin-6-one] as the compound, how does the “hydrolysis of the compound in an aqueous composition” value ([2]; dissolved and prepared in the form of an aqueous composition) read?
**A.** Its value is “susceptible to hydrolysis”.

**Q.** What about the “degradation of the compound under light irradiation” value ([2]; under the light irradiation) of the same compound?
**A.** Its value is “easily degraded under the light irradiation”.
